In patent US20130065818A1, “Arylamide Compounds And Compositions And Uses Thereof” (POLYMEDIX, priority 2006, published 2013):
In brackets after ≈: the same amount, converted by molar mass. Read-outs that look alike come from different tables or passages of the source.

Key:
[1] = test system: Moraxella species (including Moraxella catarrhalis); experiment: MIC, 25 ocular isolates, broth microdilution (Example 8); format: cell-based
Description: (§1) Mueller-Hinton Broth supplemented with 2% lysed horse blood in tubes was inoculated with 25 ocular isolates of Streptococcus pneumoniae, Streptococcus viridans group, and Moraxella species (including Moraxella catarrhalis) plus two controls (Staphylococcus aureus and E. coli) and incubated at 37° C. overnight. Additionally, Mueller-Hinton Broth in tubes was inoculated with two controls (Staphylococcus aureus and E. coli) and incubated at 37° C. overnight on a shaker set at 250 rpm.
(§2) On the day of testing, a 640 μg/ml (1280 μg/ml for Serratia marcescens and Pseudomonas aeruginosa) concentration was prepared from a 1% stock solution in 0.01% acetic acid, 0.2% BSA in polypropylene tubes.
(§3) Serial doubling dilutions in 0.01% acetic acid, 0.2% BSA in 96 well polypropylene plates, which are used as reservoirs for the inoculation of the test plates, were carried out to obtain serial dilutions of test agents at 10 times the required test concentrations: 640, 320, 160, 80, 40, 20, 10, 5, 2.5, 1.25, and 0.625 μg/ml (1280, 640, 320, 160, 80, 40, 20, 10, 5, 2.5, and 1.25 μg/ml for Serratia marcescens and Pseudomonas aeruginosa).
(§4) Ten μl of diluted 10×test agents was added to each well of one row of the 96 well polypropylene plates from column 2 to column 12 (column 1 is a control for bacteria alone, with no peptide). Test agent concentrations in columns 2-12 were as follows: 64, 32, 16, 8, 4, 2, 1, 0.5, 0.25, 0.125, and 0.0625 μg/ml (128, 64, 32, 16, 8, 4, 2, 1, 0.5, 0.25, and 0.125 μg/ml for Serratia marcescens and Pseudomonas aeruginosa). The same peptide was in each of the 8 rows. One plate contained dilutions of one test agent and 8 bacterial isolates.
(§5) On the day of testing, the overnight bacterial broth cultures of Streptococcus pneumoniae, Streptococcus viridans and Moraxella species (including Moraxella catarrhalis) plus two controls (Staphylococcus aureus and E. coli) were diluted in 5 ml of trypticase soy broth to yield turbidity equal to a 0.5 McFarland standard. The final inoculum for MIC testing for Streptococcus pneumoniae, Streptococcus viridans and Moraxella species (including Moraxella catarrhalis) was achieved by placing 0.1 ml of the turbidity adjusted sample to 5 ml of Mueller-Hinton broth containing 2% lysed horse red blood cells.
(§6) Ninety μl of the bacterial suspensions was dispensed in each well from column 1 to column 12. Each bacterial isolate was placed in one row of a 96 well polypropylene plate containing the test agents. The plates were placed on shaker at 15 minutes at room temperature, and then incubated at 37° C. overnight. MICs were determined visually as the lowest concentration of drug that inhibits visible bacterial growth.

[2] = test system: Streptococcus pneumoniae; experiment: as above; format: cell-based
Description: as §1, §2, §3, §4, §5, §6

[3] = n=25 isolates, >64 replaced with 128

## N=C(N)NCCCCC(=O)Nc1cc(C(F)(F)F)cc(NC(=O)c2cc(C(=O)Nc3cc(C(F)(F)F)cc(NC(=O)CCCCNC(=N)N)c3O[C@@H]3CCNC3)ncn2)c1O[C@@H]1CCNC1 [Oligomer 4]
[1]; Moraxella, 25 ocular isolates, Mueller-Hinton broth with 2% lysed horse red blood cells, read-out: Median MIC
  MIC: ≤ 4 µg/mL
[1]; Moraxella, isolate 1 K1614 - MS, read-out: MIC
  MIC: 16 µg/mL (≈ 17.1 µM)
[1]; Moraxella, isolate 2 K1661 - MS, read-out: MIC
  MIC: 32 µg/mL (≈ 34.2 µM)
[1]; Moraxella, isolate 3 K1643 - MS, read-out: MIC
  MIC: 64 µg/mL (≈ 68.3 µM)
[1]; Moraxella, isolate 4 K1640 - MS, read-out: MIC
  MIC: 8 µg/mL (≈ 8.54 µM)
[1]; Moraxella, isolate 5 B1431 - MS, read-out: MIC
  MIC: 32 µg/mL (≈ 34.2 µM)
[1]; Moraxella, isolate 6 B1429 - MS, read-out: MIC
  MIC: 1 µg/mL (≈ 1.07 µM)
[1]; Moraxella, isolate 7 B1418 - MS, read-out: MIC
  MIC: 32 µg/mL (≈ 34.2 µM)
[1]; Moraxella, isolate 8 K1784 - MS, read-out: MIC
  MIC: 64 µg/mL (≈ 68.3 µM)
[1]; Moraxella, isolate 9 K1773 - MS, read-out: MIC
  MIC: 64 µg/mL (≈ 68.3 µM)
[1]; Moraxella, isolate 10 K1369 - MS, read-out: MIC
  MIC: 2 µg/mL (≈ 2.13 µM)
[1]; Moraxella, isolate 11 B1275 - MS, read-out: MIC
  MIC: 2 µg/mL (≈ 2.13 µM)
[1]; Moraxella, isolate 12 B1221 - MS, read-out: MIC
  MIC: 2 µg/mL (≈ 2.13 µM)
[1]; Moraxella, isolate 13 B1172 - MS, read-out: MIC
  MIC: > 64 µg/mL
[1]; Moraxella, isolate 14 E542 - MS, read-out: MIC
  MIC: 2 µg/mL (≈ 2.13 µM)
[1]; Moraxella, isolate 15 K678 - MS, read-out: MIC
  MIC: 2 µg/mL (≈ 2.13 µM)
[1]; Moraxella, isolate 16 K660 - MS, read-out: MIC
  MIC: 2 µg/mL (≈ 2.13 µM)
[1]; Moraxella, isolate 17 K599 - MC, read-out: MIC
  MIC: 0.5 µg/mL (≈ 0.534 µM)
[1]; Moraxella, isolate 18 K1650 - MC, read-out: MIC
  MIC: 64 µg/mL (≈ 68.3 µM)
[1]; Moraxella, isolate 19 K1373 - MC, read-out: MIC
  MIC: 1 µg/mL (≈ 1.07 µM)
[1]; Moraxella, isolate 20 K1553 - MC, read-out: MIC
  MIC: 4 µg/mL (≈ 4.27 µM)
[1]; Moraxella, isolate 21 K1453 - MC, read-out: MIC
  MIC: 4 µg/mL (≈ 4.27 µM)
[1]; Moraxella, isolate 22 K1227 - MC, read-out: MIC
  MIC: 2 µg/mL (≈ 2.13 µM)
[1]; Moraxella, isolate 23 B1102 - MC, read-out: MIC
  MIC: 1 µg/mL (≈ 1.07 µM)
[1]; Moraxella, isolate 24 K1819 - MC, read-out: MIC
  MIC: 4 µg/mL (≈ 4.27 µM)
[1]; Moraxella, isolate 25 K1855 - MC, read-out: MIC
  MIC: 2 µg/mL (≈ 2.13 µM)
[1]; Moraxella, n=25 isolates, >64 replaced with 128, read-out: MIC50
  MIC50: 4 µg/mL (≈ 4.27 µM)
[1]; Moraxella, n=25 isolates, >64 replaced with 128, read-out: MIC90
  MIC90: 64 µg/mL (≈ 68.3 µM)
[1]; Moraxella, n=25 isolates, >64 replaced with 128, read-out: Median MIC
  MIC: 4 µg/mL (≈ 4.27 µM)
[1]; [3]
  MIC50: 4 µg/mL (≈ 4.27 µM)
  MIC90: 64 µg/mL (≈ 68.3 µM)
  Range of MICs: 0.5 to 128 µg/mL
[2]; 25 isolates, Row 13
  MIC50: 1 µg/mL (≈ 1.07 µM)
[2]; 25 isolates, Row 22
  MIC90: 2 µg/mL (≈ 2.13 µM)
[2]; 25 isolates, Summary of Results, >64 was Replaced with 128
  Range of MICs: 0.5 to 128 µg/mL
[2]; Streptococcus pneumoniae, 25 ocular isolates, Mueller-Hinton broth with 2% lysed horse red blood cells, read-out: Median MIC
  MIC: ≤ 4 µg/mL
[2]; Streptococcus pneumoniae, isolate 1—B1386, read-out: MIC
  MIC: > 64 µg/mL
[2]; Streptococcus pneumoniae, isolate 2—B1380, read-out: MIC
  MIC: 1 µg/mL (≈ 1.07 µM)
[2]; Streptococcus pneumoniae, isolate 3—B1378, read-out: MIC
  MIC: 1 µg/mL (≈ 1.07 µM)
[2]; Streptococcus pneumoniae, isolate 4—B1377, read-out: MIC
  MIC: 2 µg/mL (≈ 2.13 µM)
[2]; Streptococcus pneumoniae, isolate 5—B1373, read-out: MIC
  MIC: 1 µg/mL (≈ 1.07 µM)
[2]; Streptococcus pneumoniae, isolate 6—B1367, read-out: MIC
  MIC: 1 µg/mL (≈ 1.07 µM)
[2]; Streptococcus pneumoniae, isolate 7—B1355, read-out: MIC
  MIC: 2 µg/mL (≈ 2.13 µM)
[2]; Streptococcus pneumoniae, isolate 8—B1353, read-out: MIC
  MIC: 1 µg/mL (≈ 1.07 µM)
[2]; Streptococcus pneumoniae, isolate 9—B1351, read-out: MIC
  MIC: 1 µg/mL (≈ 1.07 µM)
[2]; Streptococcus pneumoniae, isolate 10—B1339, read-out: MIC
  MIC: 1 µg/mL (≈ 1.07 µM)
[2]; Streptococcus pneumoniae, isolate 11—B1337, read-out: MIC
  MIC: 0.5 µg/mL (≈ 0.534 µM)
[2]; Streptococcus pneumoniae, isolate 12—B1335, read-out: MIC
  MIC: 2 µg/mL (≈ 2.13 µM)
[2]; Streptococcus pneumoniae, isolate 13—B1334, read-out: MIC
  MIC: 1 µg/mL (≈ 1.07 µM)
[2]; Streptococcus pneumoniae, isolate 14—B1333, read-out: MIC
  MIC: 1 µg/mL (≈ 1.07 µM)
[2]; Streptococcus pneumoniae, isolate 15—B1255, read-out: MIC
  MIC: 0.5 µg/mL (≈ 0.534 µM)
[2]; Streptococcus pneumoniae, isolate 16—B1288, read-out: MIC
  MIC: 1 µg/mL (≈ 1.07 µM)
[2]; Streptococcus pneumoniae, isolate 17—B1287, read-out: MIC
  MIC: 1 µg/mL (≈ 1.07 µM)
[2]; Streptococcus pneumoniae, isolate 18—B1272, read-out: MIC
  MIC: 0.5 µg/mL (≈ 0.534 µM)
[2]; Streptococcus pneumoniae, isolate 19—B1264, read-out: MIC
  MIC: 0.5 µg/mL (≈ 0.534 µM)
[2]; Streptococcus pneumoniae, isolate 20—B1252, read-out: MIC
  MIC: 1 µg/mL (≈ 1.07 µM)
[2]; Streptococcus pneumoniae, isolate 21—B1245, read-out: MIC
  MIC: 0.5 µg/mL (≈ 0.534 µM)
[2]; Streptococcus pneumoniae, isolate 22—B1211, read-out: MIC
  MIC: 1 µg/mL (≈ 1.07 µM)
[2]; Streptococcus pneumoniae, isolate 23—B1213, read-out: MIC
  MIC: 1 µg/mL (≈ 1.07 µM)
[2]; Streptococcus pneumoniae, isolate 24—B1208, read-out: MIC
  MIC: 0.5 µg/mL (≈ 0.534 µM)
[2]; Streptococcus pneumoniae, isolate 25—B1214, read-out: MIC
  MIC: 1 µg/mL (≈ 1.07 µM)
[2]; Streptococcus pneumoniae, n=25 per group, read-out: Median MIC
  MIC: 1 µg/mL (≈ 1.07 µM)
[2]; Streptococcus pneumoniae, 25 isolates, Summary of Results, read-out: MIC50
  MIC50: 1 µg/mL (≈ 1.07 µM)
[2]; Streptococcus pneumoniae, 25 isolates, Summary of Results, read-out: MIC90
  MIC90: 2 µg/mL (≈ 2.13 µM)
[2]; Streptococcus pneumoniae, 25 isolates, Summary of Results, read-out: Median MIC
  MIC: 1 µg/mL (≈ 1.07 µM)
[2]; n=25 per group
  MIC50: 1 µg/mL (≈ 1.07 µM)
  MIC90: 2 µg/mL (≈ 2.13 µM)
  Range of MICs: 0.5 to 128 µg/mL
